In US20020052325A1, “Anticonvulsant derivatives useful in maintaining weight loss” (priority 1999, published 2002):
Like-named read-outs stand apart in the source and are kept apart here.

Experiments:
[1] = overweight individuals; cited from earlier work
[2] = system: simple and complex partial seizures and secondarily generalized seizures; conditions: adjunctive therapy or monotherapy, human epilepsy; cited from earlier work
seizures [3] = conditions: several rodent models of epilepsy; cited from earlier work
[4] = Weight loss in patients treated with topiramate as adjunctive therapy in epilepsy; assay type: in vivo, human
Method: Further, carboxylic acids and aldehydes of the formulae RCOOH and RCHO may be reduced to compounds of the formula RCH2OH by standard reduction techniques, e.g. reaction with lithium aluminum hydride, sodium borohydride or borane-THF complex in an inert solvent such a diglyme, THF or toluene at a temperature of about 0° to 100° C., e.g. as described by H. O. House in “Modern Synthetic Reactions”, 2nd Ed., pages 45 to 144 (1972). In patients treated with topiramate as an adjunctive therapy in epilepsy (n=1319), mean weight loss of 4.6% of baseline weight was observed. The mean daily dosage of topiramate was 621.9 mg/day and the mean duration of dosing was 688.8 days. […] On topiramate treatment, there is gradual weight loss over time, with maintenance of the weight lost to 24 months of therapy; thus the mean percentage decrease in weight for all subjects (n=1319) was 4.6%, with similar weight loss maintained at one year (4.9%) and two years (4.5%) of treatment. This pattern is also seen in those patients with weight in excess of 100 kg at baseline (n=127), who lost a mean of 8.4% weight overall, with loss of 9.4% at one year and 9.9% at two years.

seizures [5] = conditions: animal model of kindled epilepsy; cited from earlier work

## CC1(C)O[C@@H]2[C@@H](CO[C@@]3(COS(N)(=O)=O)OC(C)(C)O[C@@H]23)O1 [topiramate, 2,3:4,5-bis-O-(1-methylethylidene)-β-D-fructopyranose sulfamate]
[1]
  weight reduction: effectively reduce the weight
[2]
  efficacy in treating seizures: effective as adjunctive therapy or as monotherapy
Seizures [3]
  seizure block: effectively block seizures
[4]; all subjects (n=1319), at one year of treatment
  mean percentage decrease in weight: 4.9%
[4]; all subjects (n=1319), at two years of treatment
  mean percentage decrease in weight: 4.5%
[4]; all subjects (n=1319), overall, mean daily dosage 621.9 mg/day, mean duration of dosing 688.8 days
  mean weight loss of baseline weight: 4.6%
[4]; subjects >100 kg at baseline (n=127), at one year
  mean decrease in weight: 9.4%
[4]; subjects >100 kg at baseline (n=127), at two years
  mean decrease in weight: 9.9%
[4]; subset of subjects weighing >100 kg at baseline (n=127), overall, mean daily dose 873.5 mg/day, mean duration of dosing 881.8 days
  mean decrease in weight: 8.4%
Seizures [5]
  seizure block: effectively block seizures
